Results reported in patent US20230148005A1, “MACROCYCLIC COMPOUNDS AND USES THEREOF” (THESEUS PHARMACEUTICALS, INC., priority 2020, published 2023).
Like-named read-outs stand apart in the source and are kept apart here.

Assays:
EGFR^L858R/T790M/C^797S = EGFR^L858R/T790M/C^797S (Homo sapiens, UniProt P00533, C797S/L858R/T790M); test: in vitro kinase assay (HTRF KinEASE-TK kit), LTC; type: biochemical; details: kinase inhibition
Source text: (§1) Assays using an in vitro kinase assay kit (HTRF KinEASE-TK kit) can be used to study the inhibitory activity of compounds described herein with respect to EGFR mutants such as EGFR^L858R, EGFR^L58R/T790M, and EGFR^L858R/T790M/C^797S.

EGFR^L58R/T790M = EGFR^L58R/T790M (Homo sapiens, UniProt P00533, L858R/T790M); test: in vitro kinase assay (HTRF KinEASE-TK kit), LT; type: biochemical; details: kinase inhibition
Source text: as §1

EGFR^L858R = EGFR^L858R (Homo sapiens, UniProt P00533, L858R); test: in vitro kinase assay (HTRF KinEASE-TK kit), L; type: biochemical; details: kinase inhibition
Source text: as §1

[1] = biological target: Ba/F3 EGFR-Del19/T790M/C797S (Homo sapiens, UniProt P00533, T790M/C797S, cells depend on it, form not given); test: Ba/F3 viability assay (CellTiter-Glo), DTC; type: cell-based; details: anti-proliferation, read-out: BaF3 DTC IC50
Ba/F3 EGFR-Del19/T790M/C797S, sequence (P00533 with tags, fused parts or gaps DEL746-750/T790M/C797S, form open): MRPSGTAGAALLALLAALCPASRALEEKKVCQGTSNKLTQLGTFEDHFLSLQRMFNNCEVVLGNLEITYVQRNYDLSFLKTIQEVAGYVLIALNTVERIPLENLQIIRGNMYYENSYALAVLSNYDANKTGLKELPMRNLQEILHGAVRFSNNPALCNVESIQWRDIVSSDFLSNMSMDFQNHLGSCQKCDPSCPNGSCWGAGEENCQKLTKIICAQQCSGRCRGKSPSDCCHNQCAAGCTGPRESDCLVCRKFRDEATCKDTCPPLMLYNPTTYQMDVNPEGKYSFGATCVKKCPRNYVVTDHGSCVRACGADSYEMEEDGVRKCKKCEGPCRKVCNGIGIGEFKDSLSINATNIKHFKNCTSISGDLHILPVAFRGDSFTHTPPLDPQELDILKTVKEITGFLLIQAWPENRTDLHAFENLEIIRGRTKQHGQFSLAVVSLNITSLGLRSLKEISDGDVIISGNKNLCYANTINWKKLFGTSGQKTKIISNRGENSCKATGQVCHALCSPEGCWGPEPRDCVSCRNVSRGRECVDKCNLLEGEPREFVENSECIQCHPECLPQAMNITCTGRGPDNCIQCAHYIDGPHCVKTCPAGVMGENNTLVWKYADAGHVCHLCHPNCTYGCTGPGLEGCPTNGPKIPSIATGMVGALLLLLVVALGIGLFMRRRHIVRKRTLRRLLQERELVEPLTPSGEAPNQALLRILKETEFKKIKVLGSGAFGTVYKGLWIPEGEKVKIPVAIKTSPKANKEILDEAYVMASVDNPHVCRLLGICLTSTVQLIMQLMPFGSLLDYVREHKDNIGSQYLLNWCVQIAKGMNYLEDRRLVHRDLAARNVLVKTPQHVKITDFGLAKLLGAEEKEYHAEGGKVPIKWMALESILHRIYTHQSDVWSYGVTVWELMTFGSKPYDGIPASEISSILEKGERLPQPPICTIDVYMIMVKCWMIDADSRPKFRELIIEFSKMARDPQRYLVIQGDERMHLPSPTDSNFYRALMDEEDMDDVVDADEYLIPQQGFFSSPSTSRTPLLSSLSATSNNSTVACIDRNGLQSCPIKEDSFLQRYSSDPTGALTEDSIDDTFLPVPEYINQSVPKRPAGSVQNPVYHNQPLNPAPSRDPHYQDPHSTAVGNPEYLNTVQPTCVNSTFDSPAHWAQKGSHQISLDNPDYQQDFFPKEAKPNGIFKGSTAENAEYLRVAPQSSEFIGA
Source text: (§2) Inhibition of cell proliferation can be studied using Ba/F3 viability assays, including the Promega CellTiter-Glo cell viability assay. This assay can be used to study the effect of compounds described herein in the following assays: (1) Ba/F3 Parental; (2) Ba/F3 EGFR-Del19/T790M; (3); Ba/F3 EGFR-Del19/C797S; and (4) Ba/F3 EGFR-Del19/T790M/C797S.

Ba/F3 EGFR-Del19/T790M = Ba/F3 EGFR-Del19/T790M (Homo sapiens, UniProt P00533, T790M, cells depend on it, form not given); test: Ba/F3 viability assay (CellTiter-Glo), DT; type: cell-based; details: anti-proliferation, read-out: BaF3 DT IC50
Ba/F3 EGFR-Del19/T790M, sequence (P00533 with tags, fused parts or gaps DEL746-750/T790M, form open): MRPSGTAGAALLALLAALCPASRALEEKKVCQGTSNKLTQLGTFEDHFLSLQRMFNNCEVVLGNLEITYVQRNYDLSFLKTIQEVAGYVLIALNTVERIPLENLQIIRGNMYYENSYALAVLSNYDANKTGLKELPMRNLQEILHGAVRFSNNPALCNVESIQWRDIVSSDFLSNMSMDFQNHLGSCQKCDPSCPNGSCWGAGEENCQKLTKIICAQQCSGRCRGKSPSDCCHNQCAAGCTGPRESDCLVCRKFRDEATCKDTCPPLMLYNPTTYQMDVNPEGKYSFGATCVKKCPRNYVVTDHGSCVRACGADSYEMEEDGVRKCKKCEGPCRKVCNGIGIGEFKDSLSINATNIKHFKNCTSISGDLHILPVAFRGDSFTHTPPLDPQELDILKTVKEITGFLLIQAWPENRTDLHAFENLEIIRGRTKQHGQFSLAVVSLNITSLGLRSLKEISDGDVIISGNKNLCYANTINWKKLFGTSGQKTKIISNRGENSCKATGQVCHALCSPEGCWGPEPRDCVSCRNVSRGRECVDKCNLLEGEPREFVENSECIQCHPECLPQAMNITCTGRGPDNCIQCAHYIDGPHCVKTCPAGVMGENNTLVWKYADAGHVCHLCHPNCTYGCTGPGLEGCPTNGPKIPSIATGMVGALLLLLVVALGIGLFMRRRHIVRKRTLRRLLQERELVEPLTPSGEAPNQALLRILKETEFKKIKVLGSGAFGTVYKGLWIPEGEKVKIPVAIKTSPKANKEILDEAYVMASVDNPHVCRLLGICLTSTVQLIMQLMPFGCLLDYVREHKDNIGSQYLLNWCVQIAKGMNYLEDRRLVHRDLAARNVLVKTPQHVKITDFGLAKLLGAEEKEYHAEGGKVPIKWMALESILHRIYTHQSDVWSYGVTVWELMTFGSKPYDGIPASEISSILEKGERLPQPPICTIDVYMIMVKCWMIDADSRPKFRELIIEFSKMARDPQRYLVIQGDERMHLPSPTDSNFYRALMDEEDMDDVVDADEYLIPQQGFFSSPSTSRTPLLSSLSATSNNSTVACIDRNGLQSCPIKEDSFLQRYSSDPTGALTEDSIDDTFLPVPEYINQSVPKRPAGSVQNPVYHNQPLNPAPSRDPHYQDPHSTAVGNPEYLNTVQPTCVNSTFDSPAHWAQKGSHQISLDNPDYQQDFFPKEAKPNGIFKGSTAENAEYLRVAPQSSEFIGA
Source text: as §2

Ba/F3 EGFR-Del19/C797S = Ba/F3 EGFR-Del19/C797S (Homo sapiens, UniProt P00533, C797S, cells depend on it, form not given); test: Ba/F3 viability assay (CellTiter-Glo), DC; type: cell-based; details: anti-proliferation, read-out: BaF3 DC IC50
Ba/F3 EGFR-Del19/C797S, sequence (P00533 with tags, fused parts or gaps DEL746-750/C797S, form open): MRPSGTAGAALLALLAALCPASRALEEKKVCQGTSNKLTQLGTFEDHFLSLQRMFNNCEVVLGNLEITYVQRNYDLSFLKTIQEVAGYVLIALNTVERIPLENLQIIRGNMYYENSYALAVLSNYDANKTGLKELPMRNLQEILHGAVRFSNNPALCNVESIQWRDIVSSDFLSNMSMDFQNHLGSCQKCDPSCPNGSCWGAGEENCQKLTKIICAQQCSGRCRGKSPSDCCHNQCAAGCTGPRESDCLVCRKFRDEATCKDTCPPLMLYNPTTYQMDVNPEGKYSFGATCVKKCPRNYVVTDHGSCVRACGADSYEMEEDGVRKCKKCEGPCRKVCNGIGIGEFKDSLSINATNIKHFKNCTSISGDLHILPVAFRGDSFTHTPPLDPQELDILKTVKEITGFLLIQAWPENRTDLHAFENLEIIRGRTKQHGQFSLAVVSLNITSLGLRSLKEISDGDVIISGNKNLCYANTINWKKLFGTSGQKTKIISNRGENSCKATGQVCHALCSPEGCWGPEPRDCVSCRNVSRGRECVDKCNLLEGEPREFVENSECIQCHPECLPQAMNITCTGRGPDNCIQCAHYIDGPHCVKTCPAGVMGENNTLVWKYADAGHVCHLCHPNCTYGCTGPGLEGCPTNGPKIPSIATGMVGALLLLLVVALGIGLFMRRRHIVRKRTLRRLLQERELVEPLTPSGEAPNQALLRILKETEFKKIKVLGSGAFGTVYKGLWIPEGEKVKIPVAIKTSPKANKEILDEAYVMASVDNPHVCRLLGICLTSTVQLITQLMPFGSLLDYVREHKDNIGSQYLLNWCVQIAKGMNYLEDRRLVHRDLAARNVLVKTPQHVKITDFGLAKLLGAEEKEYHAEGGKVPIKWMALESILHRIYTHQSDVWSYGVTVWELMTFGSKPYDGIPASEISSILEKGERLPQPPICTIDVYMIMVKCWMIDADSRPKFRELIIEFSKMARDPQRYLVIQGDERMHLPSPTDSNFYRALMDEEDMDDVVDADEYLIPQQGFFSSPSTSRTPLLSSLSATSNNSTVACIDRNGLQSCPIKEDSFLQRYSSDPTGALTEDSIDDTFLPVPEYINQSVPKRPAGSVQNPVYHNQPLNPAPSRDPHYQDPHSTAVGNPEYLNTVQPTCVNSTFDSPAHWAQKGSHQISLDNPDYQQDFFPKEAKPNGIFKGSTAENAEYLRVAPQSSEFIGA
Source text: as §2

Ba/F3 Parental = test: Ba/F3 viability assay (CellTiter-Glo), parental; type: cell-based
Source text: as §2

[2] = Mus musculus, BaF3, anti-proliferation

EGFR^L858R/T790M/C^797S, sequence (P00533 25-1210 T790M/C797S/L858R): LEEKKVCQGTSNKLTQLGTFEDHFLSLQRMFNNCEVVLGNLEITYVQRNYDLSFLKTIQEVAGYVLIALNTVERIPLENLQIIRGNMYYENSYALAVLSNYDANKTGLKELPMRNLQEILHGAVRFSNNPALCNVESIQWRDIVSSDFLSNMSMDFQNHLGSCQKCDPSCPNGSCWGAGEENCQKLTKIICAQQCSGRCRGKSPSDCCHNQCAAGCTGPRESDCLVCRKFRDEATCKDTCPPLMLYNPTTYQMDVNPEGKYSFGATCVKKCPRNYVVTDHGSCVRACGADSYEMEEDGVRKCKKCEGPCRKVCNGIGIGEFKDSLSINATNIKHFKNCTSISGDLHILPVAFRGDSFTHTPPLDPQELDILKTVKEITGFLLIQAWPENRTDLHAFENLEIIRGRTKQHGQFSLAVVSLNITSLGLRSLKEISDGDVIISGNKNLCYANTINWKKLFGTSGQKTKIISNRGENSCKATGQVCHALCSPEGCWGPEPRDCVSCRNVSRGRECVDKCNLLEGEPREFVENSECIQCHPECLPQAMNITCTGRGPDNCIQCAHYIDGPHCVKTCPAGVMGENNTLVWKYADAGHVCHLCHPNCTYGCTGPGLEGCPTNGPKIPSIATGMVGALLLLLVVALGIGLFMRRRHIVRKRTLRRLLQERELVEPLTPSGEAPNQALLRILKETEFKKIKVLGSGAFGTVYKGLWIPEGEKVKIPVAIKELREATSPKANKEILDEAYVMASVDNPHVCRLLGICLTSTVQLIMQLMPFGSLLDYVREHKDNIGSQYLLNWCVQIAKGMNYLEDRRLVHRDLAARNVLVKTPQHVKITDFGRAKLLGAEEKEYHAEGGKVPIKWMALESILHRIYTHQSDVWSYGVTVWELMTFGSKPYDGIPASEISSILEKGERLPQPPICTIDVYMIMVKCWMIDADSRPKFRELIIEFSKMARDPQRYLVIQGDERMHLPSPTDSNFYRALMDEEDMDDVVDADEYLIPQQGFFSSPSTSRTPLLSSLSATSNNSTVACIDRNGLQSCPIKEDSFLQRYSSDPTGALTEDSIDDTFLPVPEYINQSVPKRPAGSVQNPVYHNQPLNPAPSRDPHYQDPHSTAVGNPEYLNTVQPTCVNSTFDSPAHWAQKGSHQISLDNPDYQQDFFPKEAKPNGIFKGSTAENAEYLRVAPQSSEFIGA

Structure (SMILES)	IC50 (EGFR^L858R/T790M/C^797S)	IC50 (EGFR^L58R/T790M)	IC50 (EGFR^L858R)	GI50 [1]	GI50 (Ba/F3 EGFR-Del19/T790M)	GI50 (Ba/F3 EGFR-Del19/C797S)	IC50 (Ba/F3 Parental; anti-proliferation, read-out: BaF3 parental IC50)	IC50 (Ba/F3 Parental; [2])
C[C@@H]1CCCOc2c(cnn2C)-c2nccc(n2)Nc2cc3c(cn2)c(N2CCC2)nn31 [(77)]	100 to 1000 nM	10 to 100 nM	≥ 1000 nM	100 to 1000 nM	≥ 1000 nM	100 to 1000 nM	≥ 1000 nM	–
C[C@H]1CCCOc2c(cnn2C)-c2nccc(n2)Nc2cc3c(cn2)c(N2CCC2)nn31 [(78)]	< 10 nM	< 10 nM	10 to 100 nM	10 to 100 nM	10 to 100 nM	10 to 100 nM	–	100 to 1000 nM
CCn1cc(-c2nn3c4cc(ncc24)Nc2ccnc(n2)-c2cnn(C)c2OCCC3C)cc1CN1CCN(C(C)C)CC1 (stereo not shown) [(80)]	< 10 nM	< 10 nM	< 10 nM	< 10 nM	< 10 nM	< 10 nM	–	10 to 100 nM
CCn1cc(CN2CCN(C)CC2)cc1-c1nn2c3cc(ncc13)Nc1ccnc(n1)-c1cnn(C)c1OCCC2C (stereo not shown) [(82)]	< 10 nM	< 10 nM	100 to 1000 nM	10 to 100 nM	10 to 100 nM	10 to 100 nM	–	10 to 100 nM
CC1CCOc2c(cnn2C)-c2nccc(n2)Nc2cc3c(cn2)c(-c2cc(CN4CCN(C)CC4)cn2C)nn31 (stereo not shown) [(83)]	< 10 nM	< 10 nM	10 to 100 nM	10 to 100 nM	10 to 100 nM	10 to 100 nM	–	10 to 100 nM
CC1CCCOc2c(cnn2C)-c2nccc(n2)Nc2cc3c(cn2)c(-c2cc(CN4CCN(C)CC4)nn2C)nn31 (stereo not shown) [(84)]	< 10 nM	< 10 nM	10 to 100 nM	10 to 100 nM	10 to 100 nM	100 to 1000 nM	–	100 to 1000 nM
CCn1ccc(-c2nn3c4cc(ncc24)Nc2ccnc(n2)-c2cnn(C)c2OCCCC3C)n1 (stereo not shown) [(85)]	< 10 nM	< 10 nM	10 to 100 nM	< 10 nM	< 10 nM	10 to 100 nM	–	≥ 1000 nM
CCn1nccc1-c1nn2c3cc(ncc13)Nc1ccnc(n1)-c1cnn(C)c1OCCCC2C (stereo not shown) [(86)]	< 10 nM	< 10 nM	10 to 100 nM	10 to 100 nM	10 to 100 nM	10 to 100 nM	–	≥ 1000 nM
CC1CCCOc2c(cnn2C)-c2nccc(n2)Nc2cc3c(cn2)c(-c2ccc(CN4CCN(C5CC5)CC4)o2)nn31 (stereo not shown) [(87)]	< 10 nM	< 10 nM	10 to 100 nM	< 10 nM	10 to 100 nM	10 to 100 nM	–	100 to 1000 nM
CCn1cc(C(=O)N2CCN(C)CC2)cc1-c1nn2c3cc(ncc13)Nc1ccnc(n1)-c1cnn(C)c1OCCC2C (stereo not shown) [(88)]	< 10 nM	< 10 nM	10 to 100 nM	100 to 1000 nM	100 to 1000 nM	100 to 1000 nM	–	100 to 1000 nM
Cc1nn(CCC(C)(C)O)cc1-c1nn2c3cc(ncc13)Nc1ccnc(n1)-c1cnn(C)c1OCCCC2C (stereo not shown) [(89)]	< 10 nM	< 10 nM	10 to 100 nM	10 to 100 nM	10 to 100 nM	10 to 100 nM	–	100 to 1000 nM
Cc1c(-c2nn3c4cc(ncc24)Nc2ccnc(n2)-c2cnn(C)c2OCCCC3C)cnn1CCC(C)(C)O (stereo not shown) [(92)]	< 10 nM	< 10 nM	10 to 100 nM	10 to 100 nM	10 to 100 nM	10 to 100 nM	–	100 to 1000 nM
CC(C)N1CCN(CC2CCN(c3nn4c5cc(ncc35)Nc3ccnc(n3)-c3cnn(C)c3OCC[C@@H]4C)C2)CC1 (stereo partly shown) [(93)]	< 10 nM	< 10 nM	< 10 nM	< 10 nM	< 10 nM	< 10 nM	–	10 to 100 nM
CC1CCCOc2c(cnn2C)-c2nccc(n2)Nc2cc3c(cn2)c(-c2nnc(CN4CCN(C)CC4)o2)nn31 (stereo not shown) [(94)]	< 10 nM	< 10 nM	100 to 1000 nM	100 to 1000 nM	100 to 1000 nM	100 to 1000 nM	–	≥ 1000 nM
C[C@H]1CCOc2c(cnn2C)-c2nccc(n2)Nc2cc3c(cn2)c(-c2cc(CN4CCN(C)CC4)n(C)n2)nn31 [(95)]	< 10 nM	< 10 nM	< 10 nM	10 to 100 nM	10 to 100 nM	10 to 100 nM	–	100 to 1000 nM
C[C@H]1CCOc2c(cnn2C)-c2nccc(n2)Nc2cc3c(cn2)c(-c2ccnc(N4CCN(C)CC4)c2)nn31 [(96)]	< 10 nM	< 10 nM	< 10 nM	10 to 100 nM	10 to 100 nM	10 to 100 nM	–	100 to 1000 nM
C[C@H]1CCOc2c(cnn2C)-c2nccc(n2)Nc2cc3c(cn2)c(N2CCN(C4CC4)CC2)nn31 [(97)]	10 to 100 nM	< 10 nM	100 to 1000 nM	100 to 1000 nM	100 to 1000 nM	100 to 1000 nM	–	≥ 1000 nM
C[C@H]1CCOc2c(cnn2C)-c2nccc(n2)Nc2cc3c(cn2)c(-c2cccc(CN4CCN(C)CC4)c2)nn31 [(98)]	< 10 nM	< 10 nM	< 10 nM	10 to 100 nM	10 to 100 nM	10 to 100 nM	–	100 to 1000 nM
C[C@H]1CCOc2c(cnn2C)-c2nccc(n2)Nc2cc3c(cn2)c(-c2ccncc2)nn31 [(100)]	< 10 nM	< 10 nM	10 to 100 nM	10 to 100 nM	10 to 100 nM	10 to 100 nM	–	100 to 1000 nM
C[C@H]1CCOc2c(cnn2C)-c2nccc(n2)Nc2cc3c(cn2)c(-c2ccc(CN4CCN(C)CC4)n2C)nn31 [(101), (16S)-11,16-dimethyl-19-[1-methyl-5-[(4-methylpiperazin-1-yl)methyl]pyrrol-2-yl]-13-oxa-2,6,10,11,17,18,22,25-octazapentacyclo[15.5.2.13,7.08,12.020,24]pentacosa-1(22),3,5,7(25),8(12),9,18,20,23-nonaene]	< 10 nM	< 10 nM	< 10 nM	< 10 nM	< 10 nM	< 10 nM	–	100 to 1000 nM
C[C@H]1CCOc2c(cnn2C)-c2nccc(n2)Nc2cc3c(cn2)c(-c2cnn(CCN(C)C)c2)nn31 [(102)]	< 10 nM	< 10 nM	< 10 nM	10 to 100 nM	10 to 100 nM	10 to 100 nM	–	100 to 1000 nM
C[C@H]1CCOc2c(cnn2C)-c2nccc(n2)Nc2cc3c(cn2)c(-c2csc(CN4CCN(C)CC4)n2)nn31 [(103)]	< 10 nM	< 10 nM	< 10 nM	< 10 nM	< 10 nM	10 to 100 nM	–	100 to 1000 nM
C[C@H]1CCOc2c(cnn2C)-c2nccc(n2)Nc2cc3c(cn2)c(N2CCOCC2)nn31 [(104)]	< 10 nM	< 10 nM	10 to 100 nM	10 to 100 nM	10 to 100 nM	10 to 100 nM	–	100 to 1000 nM
C[C@H]1CCOc2c(cnn2C)-c2nccc(n2)Nc2cc3c(cn2)c(-c2cc(CN4CCOCC4)n(C)n2)nn31 [(105)]	< 10 nM	< 10 nM	< 10 nM	< 10 nM	< 10 nM	10 to 100 nM	–	≥ 1000 nM
C[C@H]1CCOc2c(cnn2C)-c2nccc(n2)Nc2cc3c(cn2)c(-c2cnc(CN4CCN(C)CC4)s2)nn31 [(106)]	< 10 nM	< 10 nM	< 10 nM	10 to 100 nM	10 to 100 nM	< 10 nM	–	100 to 1000 nM
C[C@H]1CCOc2c(cnn2C)-c2nccc(n2)Nc2cc3c(cn2)c(-c2ncc(CN4CCN(C)CC4)s2)nn31 [(107), (16S)-11,16-dimethyl-19-[5-[(4-methylpiperazin-1-yl)methyl]thiazol-2-yl]-13-oxa-2,6,10,11,17,18,22,25-octazapentacyclo[15.5.2.13,7.08,12.020,24]pentacosa-1(22),3,5,7(25),8(12),9,18,20,23-nonaene]	< 10 nM	< 10 nM	< 10 nM	< 10 nM	< 10 nM	< 10 nM	–	100 to 1000 nM
C[C@H]1CCOc2c(cnn2C)-c2nccc(n2)Nc2cc3c(cn2)c(-c2cccc(N4CCC(N(C)C)CC4)c2)nn31 [(108)]	< 10 nM	< 10 nM	< 10 nM	< 10 nM	10 to 100 nM	10 to 100 nM	–	100 to 1000 nM
C[C@H]1CCOc2c(cnn2C)-c2nccc(n2)Nc2cc3c(cn2)c(-c2ccn(C)c2)nn31 [(109)]	< 10 nM	< 10 nM	< 10 nM	< 10 nM	< 10 nM	< 10 nM	–	100 to 1000 nM
